{"source": "BindingDB's records for doi:10.1021/acs.jmedchem.8b00990", "about": "(China Pharmaceutical University, 2019)", "key": {"[1]": {"assay": "Inhibition of mouse PDL1 in mouse splenocytes assessed as rescue of splenocyte effector function"}, "[2]": {"assay": "Inhibition of mouse PDL2 in mouse splenocytes assessed as rescue of splenocyte effector function"}}}
{"molecule": "C[C@@H](O)[C@H](NC(=O)N[C@@H](CC(N)=O)C(=O)NNC(=O)[C@@H](N)CO)C(=O)O", "values": [{"measurement": "EC50", "setting": "[1]", "result": 30, "unit": "nM"}, {"measurement": "EC50", "setting": "[2]", "result": 40, "unit": "nM"}]}
